Reference: patent publication US20050026911A1, “Benzotriazapinone salts and methods for using same” (priority 2003, published 2005)

target: T1, gastrin (CCK2) receptors (Rattus norvegicus, UniProt P30553); experiment: gastrin (CCK2) antagonist activity in an immature rat stomach assay; conditions: pentagastrin dose-response curves, acid secretion, read-out: pKB rat stomach (converted)
T1 construct: The stomach was excised and flushed with ca. 1 ml of unbuffered physiological saline solution; from tissue; host or cells: isolated whole stomach of immature rats (ca. 21 days old)
T1 sequence (P30553 1-452): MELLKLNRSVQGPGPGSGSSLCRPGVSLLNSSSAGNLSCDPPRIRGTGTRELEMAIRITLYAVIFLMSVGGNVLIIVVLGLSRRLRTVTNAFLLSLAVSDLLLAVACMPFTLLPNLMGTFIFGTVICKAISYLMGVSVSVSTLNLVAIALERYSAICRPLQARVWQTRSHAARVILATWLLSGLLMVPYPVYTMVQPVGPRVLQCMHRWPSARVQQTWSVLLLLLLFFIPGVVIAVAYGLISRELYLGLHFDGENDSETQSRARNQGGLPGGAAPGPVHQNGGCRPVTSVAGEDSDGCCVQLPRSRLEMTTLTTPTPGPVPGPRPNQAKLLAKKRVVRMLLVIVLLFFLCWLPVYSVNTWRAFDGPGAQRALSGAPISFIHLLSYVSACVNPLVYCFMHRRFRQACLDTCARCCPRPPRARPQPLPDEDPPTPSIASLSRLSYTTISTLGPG
Experimental: The compounds of the examples were tested for gastrin (CCK2) antagonist activity in an immature rat stomach assay. The procedure was as follows:
The oesophagus of immature rats (33-50 g, ca. 21 days old) was ligated at the level of the cardiac sphincter and the duodenal sphincter was cannulated. The stomach was excised and flushed with ca. 1 ml of unbuffered physiological saline solution. The fundus was punctured and cannulated. A further 4-5 ml of unbuffered solution was flushed through the stomach to ensure the preparation was not leaking. […] The stomach was continuously perfused at a rate of 1 ml min^−1 with unbuffered solution gassed with 100% O2 with the perfusate passing over an internally referenced pH-electrode fixed 12 cm above the stomach.
After 120 min of stabilisation the drugs were added directly to the serosal solution in the organ bath and after a further 60 min cumulative pentagastrin dose-response curves were started.

| Compound | Kb [nM] |
| --- | --- |
| CC(Nc1cccc(NC(=O)CN2N=C(C3CCCCC3)c3ccccc3N(CC(=O)C(C)(C)C)C2=O)c1)C(=O)O (racemic) [Example 75, 2-(3{2-[5-Cyclohexyl-1-(3,3-dimethyl-2-oxo-butyl)-2-oxo-1,2-dihydro-3H-1,3,4-benzotriazepin-3-yl]-acetylamino}-phenylamino)-propionic acid] | 209 |
| CC(C)(C)C(=O)CN1C(=O)N(CC(=O)Nc2cccc(N3CCCC3C(=O)O)c2)N=C(C2CCCCC2)c2ccccc21 (stereo in doubt) [Example 76, (R)-]-(3-{2-[5-Cyclohexyl-1-(3,3-dimethyl-2-oxobutyl)-2-oxo-1,2-dihydro-3H-1,3,4-benzotriazepin-3-yl]-acetylamino}-phenyl)-pyrrolidine-2-carboxylic acid] | 110 |
| COC(=O)c1cccc(NC(=O)CN2N=C(C3CCCCC3)c3ccccc3N(CC(=O)C(C)(C)C)C2=O)c1 [Example 1, 3-{2-[5-Cyclohexyl-1-(3,3-dimethyl-2-oxo-butyl)-2-oxo-1,2-dihydro-3H-1,3,4-benzotriazepin-3-yl]-acetylamino}-benzoic acid methyl ester] | 2.82 |
| CC(C)(C)C(=O)CN1C(=O)N(CC(=O)Nc2cccc(C(=O)O)c2)N=C(C2CCCCC2)c2ccccc21 [Example 2, 3-{2-[5-Cyclohexyl-1-(3,3-dimethyl-2-oxo-butyl)-2-oxo-1,2-dihydro-3H-1,3,4-benzotriazepin-3-yl]-acetylamino}-benzoic acid] | 0.661 |
| CNc1cccc(NC(=O)CN2N=C(c3ccccc3)c3ccccc3N(CC(=O)C(C)(C)C)C2=O)c1 [Example 4, 2-[1-(3,3-Dimethyl-2-oxo-butyl)-2-oxo-5-phenyl-1,2-dihydro-3H-1,3,4-benzotriazepin-3-yl]-N-(3-methylamino-phenyl)-acetamide] | 132 |
| CNc1cccc(NC(=O)CN2N=C(c3ccccn3)c3ccccc3N(CC(=O)C(C)(C)C)C2=O)c1 [Example 5, 2-[1-(3,3-Dimethyl-2-oxo-butyl)-2-oxo-5-pyridin-2-yl-1,2-dihydro-3H-1,3,4-benzotriazepin-3-yl]-N-(3-methylamino-phenyl)-acetamide] | 240 |
| CNc1cccc(NC(=O)CN2N=C(c3ccccn3)c3ccccc3N(CC(=O)N3CCCC3)C2=O)c1 [Example 6] | 1050 |
| CNc1cccc(NC(=O)CN2N=C(c3ccccn3)c3ccccc3N(CC(=O)c3ccccc3C)C2=O)c1 [Example 7, N-(3-Methylamino-phenyl)-2-[2-oxo-1-(2-oxo-2-o-tolyl-ethyl)-5-pyridin-2-yl-1,2-dihydro-3H-1,3,4-benzotriazepin-3-yl]-acetamide] | 50.1 |
| CNc1cccc(NC(=O)NCN2N=C(c3ccccn3)c3ccccc3N(CC(=O)C(C)(C)C)C2=O)c1 [Example 8, 1-[1-(3,3-Dimethyl-2-oxo-butyl)-2-oxo-5-pyridin-2-yl-1,2-dihydro-3H-1,3,4-benzotriazepin-3-ylmethyl]-3-(3-methylamino-phenyl)-urea] | 263 |
| CC(C)(C)C(=O)CN1C(=O)N(CC(=O)Nc2cccc(C(=O)O)c2)N=C(C2CCCC2)c2ccccc21 [Example 9, 3-{2-[5-Cyclopentyl-1-(3,3-dimethyl-2-oxo-butyl)-2-oxo-1,2-dihydro-3H-1,3,4-benzotriazepin-3-yl]-acetylamino}-benzoic acid] | 75.9 |
| CC(C)(C)C(=O)CN1C(=O)N(CC(=O)Nc2cccc(-c3nn[nH]n3)c2)N=C(C2CCCC2)c2ccccc21 [Example 10, 2-[5-Cyclopentyl-1-(3,3-dimethyl-2-oxo-butyl)-2-oxo-1,2-dihydro-3H-1,3,4-benzotriazepin-3-yl]-[3-(2H-tetrazol-5-yl)-phenyl]-acetamide] | 89.1 |
| CNc1cccc(NC(=O)CN2N=C(C3CCCC3)c3ccccc3N(CC(=O)C(C)(C)C)C2=O)c1 [Example 11, 2-[5-Cyclopentyl-1-(3,3-dimethyl-2-oxo-butyl)-2-oxo-1,2-dihydro-3H-1,3,4-benzotriazepin-3-yl]-N-(3-methylaminophenyl)-acetamide] | 44.7 |
| CNc1cccc(NC(=O)CN2N=C(CC(C)C)c3ccccc3N(CC(=O)C(C)(C)C)C2=O)c1 [Example 13, 2-[1-(3,3-Dimethyl-2-oxo-butyl)-5-isobutyl-2-oxo-1,2-dihydro-3H-1,3,4-benzotriazepin-3-yl]-N-(3-methylaminophenyl)-acetamide] | 51.3 |
| CC(C)CCN1C(=O)N(CC(=O)Nc2cccc(C(=O)O)c2)N=C(C2CCCCC2)c2ccccc21 [Example 16, 3-{2-[5-Cyclohexyl-1-(3-methyl-butyl)-2-oxo-1,2-dihydro-3H-1,3,4-benzotriazepin-3-yl]-acetylamino}-benzoic acid] | 42.7 |
| O=C(CN1N=C(C2CCCCC2)c2ccccc2N(CC(=O)C23CC4CC(CC(C4)C2)C3)C1=O)Nc1cccc(C(=O)O)c1 [Example 17, 3-{2-[1-(2-Adamantan-1-yl-2-oxo-ethyl)-5-cyclohexyl-2-oxo-1,2-dihydro-3H-1,3,4-benzotriazepin-3-yl]-acetylamino}-benzoic acid] | 115 |
| CC(C)(C)C(=O)CN1C(=O)N(CC(=O)Nc2cccc(-c3nn[nH]n3)c2)N=C(C2CCCCC2)c2ccccc21 [Example 23, 2-[5-Cyclohexyl-1-(3,3-dimethyl-2-oxo-butyl)-2-oxo-1,2-dihydro-3H-1,3,4-benzotriazepin-3-yl]-N-[3-(2H-tetrazol-5-yl)-phenyl]-acetamide] | 11.2 |
| CC(C)(C)C(=O)CN1C(=O)N(CC(=O)Nc2cccc(NS(C)(=O)=O)c2)N=C(C2CCCCC2)c2ccccc21 [Example 26, 2-[5-Cyclohexyl-1-(3,3-dimethyl-2-oxo-butyl)-2-oxo-1,2-dihydro-3H-1,3,4-benzotriazepin-3-yl]-N-(3-methanesulfonylamino-phenyl)-acetamide] | 457 |
| CC(C)(C)C(=O)CN1C(=O)N(CC(=O)Nc2cccc(CC(=O)O)c2)N=C(C2CCCCC2)c2ccccc21 [Example 29, (3-{2-[5-Cyclohexyl-1-(3,3-dimethyl-2-oxo-butyl)-2-oxo-1,2-dihydro-3H-1,3,4-benzotriazepin-3-yl]-acetylamino}-phenyl)-acetic acid] | 61.7 |
| COc1ccc(NC(=O)CN2N=C(C3CCCCC3)c3ccccc3N(CC(=O)C(C)(C)C)C2=O)cc1 [Example 32, 2-[5-Cyclohexyl-1-(3,3-dimethyl-2-oxo-butyl)-2-oxo-1,2-dihydro-3H-1,3,4-benzotriazepin-3-yl]-N-(4-methoxy-phenyl)-acetamide] | 77.6 |
| CN(C)c1cccc(NC(=O)CN2N=C(C3CCCCC3)c3ccccc3N(CC(=O)C(C)(C)C)C2=O)c1 [Example 33, 2-[5-Cyclohexyl-J-(3,3-dimethyl-2-oxo-butyl)-2-oxo-1,2-dihydro-3H-1,3,4-benzotriazepin-3-yl]-N-(3-dimethylamino-phenyl)-acetamide] | 91.2 |
| CC(C)(C)C(=O)CN1C(=O)N(CC(=O)Nc2ccc3c(c2)N(CC(=O)O)CC3)N=C(C2CCCCC2)c2ccccc21 [Example 34, (6-{2-[5-Cyclohexyl-1-(3,3-dimethyl-2-oxo-butyl)-2-oxo-1,2-dihydro-3H-1,3,4-benzotriazepin-3-yl]-acetylamino}-2,3-dihydro-indol-1-yl)-acetic acid] | 15.8 |
| CC(C)(C)C(=O)CN1C(=O)N(CC(=O)Nc2cccc(SCC(=O)O)c2)N=C(C2CCCCC2)c2ccccc21 [Example 38, (3-{2-[5-Cyclohexyl-1-(3,3-dimethyl-2-oxo-butyl)-2-oxo-1,2-dihydro-3H-1,3,4-benzotriazepin-3-yl]-acetylamino}-phenylsulfanyl)-acetic acid] | 6.61 |
